This passage reports IC50 results from US20210300940A1 (Merck Patent GmbH, priority 2018, published 2021).

Each structure is given as a SMILES string. Where only a bound is given, the exact number is not on record here.

One experiment has as its target T1, TLR7 (Homo sapiens, UniProt Q9NYK1).
T1 construct: expressed in transfected cells; host or cells: HEK/293 cells carrying TLR7 and an NF-kB luciferase reporter
T1 sequence (Q9NYK1 27-1049): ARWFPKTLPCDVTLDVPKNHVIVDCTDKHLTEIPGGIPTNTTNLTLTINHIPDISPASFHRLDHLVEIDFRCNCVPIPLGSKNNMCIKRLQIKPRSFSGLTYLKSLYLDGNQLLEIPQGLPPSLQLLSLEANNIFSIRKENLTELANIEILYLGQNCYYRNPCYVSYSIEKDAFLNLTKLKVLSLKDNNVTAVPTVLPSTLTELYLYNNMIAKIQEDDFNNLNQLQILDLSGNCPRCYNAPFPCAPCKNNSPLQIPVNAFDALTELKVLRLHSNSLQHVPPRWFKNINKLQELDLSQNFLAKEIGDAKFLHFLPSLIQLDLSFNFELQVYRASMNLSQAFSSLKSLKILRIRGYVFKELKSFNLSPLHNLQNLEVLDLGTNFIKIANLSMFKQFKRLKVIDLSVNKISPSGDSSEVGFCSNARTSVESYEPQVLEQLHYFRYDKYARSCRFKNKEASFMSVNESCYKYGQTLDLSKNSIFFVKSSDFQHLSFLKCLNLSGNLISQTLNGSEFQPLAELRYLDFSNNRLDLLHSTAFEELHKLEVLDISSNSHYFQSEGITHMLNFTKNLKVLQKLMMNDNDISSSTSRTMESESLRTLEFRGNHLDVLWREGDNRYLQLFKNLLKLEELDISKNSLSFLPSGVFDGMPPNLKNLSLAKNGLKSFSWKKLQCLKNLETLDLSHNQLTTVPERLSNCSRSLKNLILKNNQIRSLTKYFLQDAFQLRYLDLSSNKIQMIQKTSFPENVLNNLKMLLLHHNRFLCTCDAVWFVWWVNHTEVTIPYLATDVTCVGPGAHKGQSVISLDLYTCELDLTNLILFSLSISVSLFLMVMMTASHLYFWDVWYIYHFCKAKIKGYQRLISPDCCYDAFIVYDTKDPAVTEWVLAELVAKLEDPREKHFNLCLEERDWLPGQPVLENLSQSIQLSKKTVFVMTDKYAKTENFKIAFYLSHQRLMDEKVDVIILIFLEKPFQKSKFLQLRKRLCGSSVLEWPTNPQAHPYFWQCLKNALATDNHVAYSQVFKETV
The experiment in a line: HEK/293 TLR7 Cell Assay. Format: cell-based. As to conditions: TLR7/NFKb HEK cells, R848 agonist 10 uM final concentration, Steady-Glo readout; read-out: TLR7 potency. An outline of the steps:
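Compounds added to HEK cells expressing TLR7 with an NFκB reporter 30 min ahead of 10 uM R848 challenge; luciferase signal (Steady-Glo) measured after 5 h, cells having been seeded 24 h earlier at 5000 per well.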

In the next experiment the target is T2, TLR8 (Homo sapiens, UniProt Q9NR97).
T2 construct: expressed in transfected cells; host or cells: HEK/293 reporter cells (NF-kB luciferase)
T2 sequence (Q9NR97 27-1041): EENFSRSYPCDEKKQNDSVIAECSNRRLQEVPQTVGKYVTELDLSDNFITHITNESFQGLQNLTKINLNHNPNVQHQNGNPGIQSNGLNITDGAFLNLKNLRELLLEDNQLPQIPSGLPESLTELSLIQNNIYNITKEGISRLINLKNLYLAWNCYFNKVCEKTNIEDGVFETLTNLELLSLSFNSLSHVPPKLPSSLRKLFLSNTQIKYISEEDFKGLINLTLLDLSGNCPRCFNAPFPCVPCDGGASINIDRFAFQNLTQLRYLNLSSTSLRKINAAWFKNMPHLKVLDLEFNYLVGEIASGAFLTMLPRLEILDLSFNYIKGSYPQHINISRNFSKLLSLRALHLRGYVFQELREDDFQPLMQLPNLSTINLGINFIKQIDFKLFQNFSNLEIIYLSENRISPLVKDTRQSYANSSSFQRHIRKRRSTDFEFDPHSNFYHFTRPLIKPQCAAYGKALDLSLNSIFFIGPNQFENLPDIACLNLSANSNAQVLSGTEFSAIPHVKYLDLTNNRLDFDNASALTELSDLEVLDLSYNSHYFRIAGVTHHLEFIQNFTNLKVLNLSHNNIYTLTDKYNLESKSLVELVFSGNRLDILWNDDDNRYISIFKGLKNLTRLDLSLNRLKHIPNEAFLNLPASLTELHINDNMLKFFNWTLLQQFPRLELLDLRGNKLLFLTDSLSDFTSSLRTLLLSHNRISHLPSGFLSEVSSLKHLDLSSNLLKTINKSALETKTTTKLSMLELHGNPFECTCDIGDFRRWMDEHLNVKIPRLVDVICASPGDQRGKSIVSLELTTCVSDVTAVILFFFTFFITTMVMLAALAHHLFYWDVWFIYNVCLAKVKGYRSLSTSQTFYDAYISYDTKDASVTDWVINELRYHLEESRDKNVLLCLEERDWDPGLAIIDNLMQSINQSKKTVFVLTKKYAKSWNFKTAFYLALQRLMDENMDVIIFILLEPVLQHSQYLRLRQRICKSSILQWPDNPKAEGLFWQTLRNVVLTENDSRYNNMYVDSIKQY
As to the kind of experiment: HEK/293 TLR8 Cell Assay. It is filed as cell-based. As to conditions: HEK cells, R848 agonist 30 uM final concentration, Steady-Glo readout; read-out: TLR8 potency.

Consider `CCS(=O)(=O)NCCN[C@@H]1C[C@H](C)CN(c2ccc(C(F)(F)F)c3nccnc23)C1` [Example 24], for which the values for the IC50 at TLR7 and on TLR8 were 75 to 150 nM and less than 75 nM, respectively.

As to `CC(=O)NCCN[C@@H]1C[C@H](C)CN(c2ccc(C(F)(F)F)c3nccnc23)C1` [Example 25, N-{2-[(3R,5S)-5-Methyl-1-(8-trifluoromethyl-quinoxalin-5-yl)-piperidin-3-ylamino]-ethyl}-acetamide formic acid], the IC50 at TLR7 and at TLR8 was less than 75 nM each time.

For the compound `C[C@H]1C[C@@H](NCC2(O)CCOCC2)CN(c2ccc(C(F)(F)F)c3nccnc23)C1` [Example 26, 4-{[(3R,5S)-5-Methyl-1-(8-trifluoromethyl-quinoxalin-5-yl)-piperidin-3-ylamino]-methyl}-tetrahydro-pyran-4-ol], the IC50 at TLR7 and at TLR8 was less than 75 nM throughout.

Take `C[C@H]1C[C@@H](NCCN2CCNC2=O)CN(c2ccc(C(F)(F)F)c3ncccc23)C1` [Example 27, 1-{2-[(3R,5S)-5-Methyl-1-(8-trifluoromethyl-quinolin-5-yl)-piperidin-3-ylamino]-ethyl}-imidazolidin-2-one]: the IC50 at TLR7 and at TLR8 was less than 75 nM throughout.

In the case of `C[C@H]1C[C@@H](NCC2CCC(=O)N2)CN(c2ccc(C(F)(F)F)c3nccnc23)C1` (stereo partly drawn) [Example 28, 5-{[(3R,5S)-5-Methyl-1-(8-trifluoromethyl-quinoxalin-5-yl)-piperidin-3-ylamino]-methyl}-pyrrolidin-2-one], the IC50 on TLR7 and at TLR8 was less than 75 nM throughout.

Turning to `C[C@H]1C[C@@H](NCCN2CCOC2=O)CN(c2ccc(C(F)(F)F)c3ncccc23)C1` [Example 29, 3-{2-[(3R,5S)-5-Methyl-1-(8-trifluoromethyl-quinolin-5-yl)-piperidin-3-ylamino]-ethyl}-oxazolidin-2-one], the IC50 on TLR7 and at TLR8 was less than 75 nM each time.

`C[C@H]1C[C@@H](NCCC2CCNC2=O)CN(c2ccc(C(F)(F)F)c3ncccc23)C1` (stereo partly drawn) [Example 30, 3-{2-[(3R,5S)-5-Methyl-1-(8-trifluoromethyl-quinolin-5-yl)-piperidin-3-ylamino]-ethyl}-pyrrolidin-2-one]: the IC50 on TLR7 and on TLR8 was less than 75 nM throughout.

In the case of `C[C@H]1C[C@@H](NCCN2CCOC2=O)CN(c2ccc(C(F)(F)F)c3nccnc23)C1` [Example 31, 3-{2-[(3R,5S)-5-Methyl-1-(8-trifluoromethyl-quinoxalin-5-yl)-piperidin-3-ylamino]-ethyl}-oxazolidin-2-one formic acid], the IC50 on TLR7 and on TLR8 was less than 75 nM throughout.

Regarding `CNS(=O)(=O)CCCN[C@@H]1C[C@H](C)CN(c2ccc(C(F)(F)F)c3ncccc23)C1` [Example 32, 3-[(3R,5S)-5-Methyl-1-(8-trifluoromethyl-quinolin-5-yl)-piperidin-3-ylamino]-propane-1-sulfonic acid methylamide], the IC50 at TLR7 and at TLR8 was less than 75 nM in each case.

For `C[C@H]1C[C@@H](NCCC(C)(C)O)CN(c2ccc(C(F)(F)F)c3ncccc23)C1` [Example 33, 2-Methyl-4-[(3R,5S)-5-methyl-1-(8-trifluoromethyl-quinolin-5-yl)-piperidin-3-ylamino]-butan-2-ol], the IC50 on TLR7 and on TLR8 was less than 75 nM in each case.

In the case of `C[C@H]1C[C@@H](NCCCS(N)(=O)=O)CN(c2ccc(C#N)c3nccnc23)C1` [Example 34, 3-[(3R,5S)-1-(8-Cyano-quinoxalin-5-yl)-5-methyl-piperidin-3-ylamino]-propane-1-sulfonic acid amide], the IC50 on TLR7 and on TLR8 was less than 75 nM each time.

Regarding `C[C@H]1C[C@@H](NCC(O)CO)CN(c2cnc(C#N)c3ncccc23)C1` (stereo partly drawn) [Example 35, 5-[(3R,5S)-3-(2,3-Dihydroxy-propylamino)-5-methyl-piperidin-1-yl]-naphthyridine-8-carbonitrile], the IC50 on TLR7 and on TLR8 was more than 150 nM in each case.

Take `C[C@H]1C[C@@H](NCCC(=O)NO)CN(c2ccc(C(F)(F)F)c3ncccc23)C1` [Example 36, N-Hydroxy-3-[(3R,5S)-5-methyl-1-(8-trifluoromethyl-quinolin-5-yl)-piperidin-3-ylamino]-propionamide]: the IC50 on TLR7 and on TLR8 was less than 75 nM in each case.

Turning to `CC(=O)NCCN[C@@H]1C[C@H](C)CN(c2ccc(C(F)(F)F)c3ncccc23)C1` [Example 37, N-{2-[(3R,5S)-5-Methyl-1-(8-trifluoromethyl-quinolin-5-yl)-piperidin-3-ylamino]-ethyl}-acetamide formic acid], the IC50 at TLR7 and on TLR8 was less than 75 nM in each case.

Consider `N#Cc1ccc(N2C[C@H](NCCCS(N)(=O)=O)C[C@H](C(F)(F)F)C2)c2cccnc12` [Example 38, 3-[(3R,5S)-1-(8-Cyano-quinolin-5-yl)-5-trifluoromethyl-piperidin-3-ylamino]-propane-1-sulfonic acid amide], for which the IC50 is more than 150 nM at TLR7 and 75 to 150 nM at TLR8.

`C[C@H]1C[C@@H](NCCCS(N)(=O)=O)CN(c2ccc(C(F)(F)F)c3ncccc23)C1` [Example 39, 3-[(3R,5S)-5-Methyl-1-(8-trifluoromethyl-quinolin-5-yl)-piperidin-3-ylamino]-propane-1-sulfonic acid amide]: the IC50 on TLR7 and at TLR8 was less than 75 nM each time.

As to `N#Cc1ccc(N2C[C@H](NCCNC(N)=O)C[C@H](C(F)(F)F)C2)c2cccnc12` [Example 40, {2-[(3R,5S)-1-(8-Cyano-quinolin-5-yl)-5-trifluoromethyl-piperidin-3-ylamino]-ethyl}-urea], the results for the IC50 on TLR7 and on TLR8 were more than 150 nM and 75 to 150 nM, respectively.

For `C[C@H]1C[C@@H](NCCNS(C)(=O)=O)CN(c2ccc(C#N)c3nccnc23)C1` [Example 41, N-{2-[(3R,5S)-1-(8-Cyano-quinoxalin-5-yl)-5-methyl-piperidin-3-ylamino]-ethyl}-methanesulfonamide], the IC50 at TLR7 and at TLR8 was less than 75 nM in each case.

As for `C[C@H]1C[C@@H](NCC2CCS(=O)(=O)C2)CN(c2ccc(C#N)c3nccnc23)C1` (stereo partly drawn) [Example 42, 8-{(3R,5S)-3-[(1,1-Dioxo-tetrahydro-1lambda6-thiophen-3-ylmethyl)-amino]-5-methyl-piperidin-1-yl}-quinoxaline-5-carbonitrile], the IC50 at TLR7 and on TLR8 was 75 to 150 nM throughout.

In the case of `C[C@H]1C[C@@H](NCCC2CS(=O)(=O)C2)CN(c2ccc(C#N)c3nccnc23)C1` [Example 43, 8-{(3R,5S)-3-[2-(1,1-Dioxo-1lambda6-thietan-3-yl)-ethylamino]-5-methyl-piperidin-1-yl}-quinoxaline-5-carbonitrile], the IC50 on TLR7 and at TLR8 was less than 75 nM each time.
